In paper PMC11413503, “SCR‐7952, a highly selective MAT2A inhibitor, demonstrates synergistic antitumor activities in combination with the S‐adenosylmethionine‐competitive or the methylthioadenosine‐cooperative protein arginine methyltransferase 5 inhibitors in methylthioadenosine phosphorylase‐deleted tumors” (MedComm, 2024):

Columns and labels:
[1] = target: DRD2S (Homo sapiens, UniProt P14416); test: Mini-profiling panel, GPCR; format: cell-based
Protocol: (§1) Further insight into selectivity was evaluated in a functional panel of 47 representative targets closely related to human life activities, including G protein‐coupled receptors, transporters, ion channels, kinases, nuclear hormone receptor targets, and nonkinase enzymes (Table S3).

[2] = target: CHRM1 (Homo sapiens, UniProt P11229); test: Mini-profiling panel, GPCR; format: cell-based
Protocol: as §1

[3] = target: HTR2B (Homo sapiens, UniProt P41595); test: Mini-profiling panel, GPCR; format: cell-based
Protocol: as §1

[4] = Plasma bilirubin in mice after oral treatment; format: in vivo; settings: SCR-7952 1.0 mg/kg, 14 days oral treatment, 2 h after final dose
[5] = target: ADRB2 (Homo sapiens, UniProt P07550); test: Mini-profiling panel, GPCR; format: cell-based; settings: GPCR Targets
[6] = target: PDE4D2 (Homo sapiens, UniProt Q08499); test: Mini-profiling panel, non-kinase enzyme; format: biochemical; settings: Non-Kinase Enzymes; read-out: PDE4D2 Inhibitor IC50
[7] = target: T1, MAT2A (Homo sapiens, UniProt P31153); test: MAT2A enzymatic activity, biochemical assay (phosphate release)
T1 construct: purchased Pharmaron 210405‐HWR‐20210429
Protocol: The test compound was prepared in dimethyl sulfoxide (DMSO). […] Then, 40 µL of enzyme dilution was added and the mixture was incubated for 120 min at room temperature. The enzymatic assay was initiated by adding 40 µL of substrate mix (a final dose of 400 µM ATP and a final dose of 200 µM L‐methionine in assay buffer), and the mixture was incubated for a further 90 min at room temperature. The liberated phosphate released by the enzyme in stoichiometric amounts by the production of SAM was measured using the Phosphate Assay Kit—PiColorLock™ (Abcam, UK). Velocity curves were fit to the standard Michaelis‐Menten equation to yield V max and K m.

[8] = system: SDMA; test: Tumor SDMA levels in combination xenograft study; format: in vivo, mice; settings: SCR-7952 0.3 mg/kg alone
[9] = system: MAT2A protein expression; test: Immunoblot of MAT2A protein expression; format: cell-based; settings: 96 h, HCT116 MTAP−/− and WT cells
[10] = target: MAOA (Homo sapiens, UniProt P21397); test: Mini-profiling panel, non-kinase enzyme; format: biochemical; settings: Non-Kinase Enzymes; read-out: MAOA Inhibitor IC50
[11] = target: AChE (Homo sapiens, UniProt P22303); test: Mini-profiling panel, non-kinase enzyme; format: biochemical; settings: Non-Kinase Enzymes; read-out: AChE Inhibitor IC50
[12] = system: HCT116 MTAP−/− subcutaneous xenograft; test: Xenograft efficacy study, monotherapy; format: in vivo, mice
Protocol: An efficacy study in an HCT116 MTAP ^−/− subcutaneous xenograft mouse model was performed to evaluate the antitumor effect of SCR‐7952, with once daily (q.d.) oral dosing of 0.25, 0.5, 1.0, or 3.0 mg/kg, respectively.
Nu/Nu female mice (6–12 weeks old; Beijing Vital River Laboratory Animal Technology Co., Ltd.) were used for in vivo xenograft studies. All experimental procedures involving animals and their care were in accordance with the State Council Regulations for Laboratory Animal Management (Enacted in 1988) and approved by the Institutional Animal Care and Use Committee of Jiangsu Simcere Pharmaceutical Co., Ltd. (IACUC; Approval No. AP‐056).
Subcutaneous injections of HCT116 MTAP ^−/− cells were performed (5 × 10^6 cells in 100 µL) into Nu/Nu female mice. Mice were observed daily for the development of tumors. Six days after tumor implantation, mice were randomly distributed into different groups. SCR‐7952, AG‐270, JNJ‐64619178, or vehicle (water with 5% N‐methylpyrrolidone and 10% solutol HS‐15) were daily administrated by oral gavage. Tumor volumes and body weights were recorded three times per week. Tumor volumes were measured in two dimensions using a caliper, and the volume was expressed in mm^3 using the formula: V = (L × W × W)/2, where V is tumor volume, L is tumor length (the longest tumor dimension), and W is tumor width (perpendicular to L). The tumor growth inhibition rate (TGI%) of each dosing group was calculated according to the following formula: %TGI = (1 − (V t(treatment group) − V 0(treatment group))/(V t(vehicle group) − V 0(vehicle group))) × 100%, where V t is average tumor volume of a dosing group on a specific day, V 0 is average tumor volume of a dosing group on the initial day. At the end of the study, plasma and tumor tissues were collected and stored at −80°C for further measurement.

[13] = system: SAM levels in HCT116 MTAP−/− xenograft tumors and mice plasma; test: In vivo SAM measurement in tumors and plasma; settings: 2 or 4 h post the final dose, low group, 16 days
Protocol: The concentration of SAM in plasma and tissue samples was determined using a UPLC–MS/MS method. For plasma samples, an aliquot of 20 µL plasma sample was added with 400 µL extraction buffer (1 M acetic acid in MeOH), then vortexed and centrifuged at 16,000 g for 5 min. The supernatant was treated as the homogenized tissue sample, and the sample dilution factor was 21. For tumor samples, the tumor tissues were homogenized with 9 volumes (v/w) of extraction buffer, then vortexed and centrifuged at 16,000 g for 5 min. The supernatant was treated as the homogenized tissue sample. An aliquot of 30 µL tissue sample was added with 600 µL extraction buffer, then vortexed and centrifuged at 16,000 g for 5 min. The total sample dilution factor is 210. An aliquot of 60 µL diluted samples, standards, or QCs was added with 400 µL extraction buffer with IS (SAM‐d 3, 50 ng/mL in extraction buffer). The mixture was vortexed at 250 g for 10 min and centrifuged at 16,000 g for 5 min. An aliquot of 4 µL supernatant was injected for UPLC–MS/MS analysis. The standard calibration curve was in a 1.0–300 ng/mL concentration range. UPLC–MS/MS method for SAM detection was performed as mentioned before.

[14] = target: ROCK1 (Homo sapiens, UniProt Q13464); test: Mini-profiling panel, kinase; format: biochemical; settings: Kinases; read-out: ROCK1 Inhibitor IC50
[15] = target: CCKAR (Homo sapiens, UniProt P32238); test: Mini-profiling panel, GPCR; format: cell-based; settings: GPCR Targets
CCKAR, sequence (P32238 whole entry, species assumed): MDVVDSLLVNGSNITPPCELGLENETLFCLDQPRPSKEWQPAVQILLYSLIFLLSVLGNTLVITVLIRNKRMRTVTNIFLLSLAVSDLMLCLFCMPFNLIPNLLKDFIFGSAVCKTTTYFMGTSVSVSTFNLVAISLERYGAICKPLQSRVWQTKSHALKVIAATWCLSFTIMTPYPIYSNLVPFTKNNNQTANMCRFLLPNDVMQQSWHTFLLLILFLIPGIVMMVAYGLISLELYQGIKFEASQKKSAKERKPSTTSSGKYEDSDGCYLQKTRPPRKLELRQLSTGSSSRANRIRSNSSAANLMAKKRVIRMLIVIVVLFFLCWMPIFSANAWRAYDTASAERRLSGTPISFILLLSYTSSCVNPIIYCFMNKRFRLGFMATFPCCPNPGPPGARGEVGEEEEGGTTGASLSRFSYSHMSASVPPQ

T1 sequence (P31153 whole entry): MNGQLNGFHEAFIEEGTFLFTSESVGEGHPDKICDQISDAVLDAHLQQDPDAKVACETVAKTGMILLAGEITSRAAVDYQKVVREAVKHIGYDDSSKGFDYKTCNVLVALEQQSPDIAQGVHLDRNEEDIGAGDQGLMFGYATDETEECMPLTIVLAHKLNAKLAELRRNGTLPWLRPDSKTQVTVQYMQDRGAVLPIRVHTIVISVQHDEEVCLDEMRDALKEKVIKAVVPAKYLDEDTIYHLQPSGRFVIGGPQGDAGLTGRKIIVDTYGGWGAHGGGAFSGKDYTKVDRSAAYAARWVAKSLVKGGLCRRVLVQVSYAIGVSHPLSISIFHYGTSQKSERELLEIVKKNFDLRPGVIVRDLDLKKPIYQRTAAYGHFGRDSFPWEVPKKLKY
CHRM1, sequence (P11229 whole entry, species assumed): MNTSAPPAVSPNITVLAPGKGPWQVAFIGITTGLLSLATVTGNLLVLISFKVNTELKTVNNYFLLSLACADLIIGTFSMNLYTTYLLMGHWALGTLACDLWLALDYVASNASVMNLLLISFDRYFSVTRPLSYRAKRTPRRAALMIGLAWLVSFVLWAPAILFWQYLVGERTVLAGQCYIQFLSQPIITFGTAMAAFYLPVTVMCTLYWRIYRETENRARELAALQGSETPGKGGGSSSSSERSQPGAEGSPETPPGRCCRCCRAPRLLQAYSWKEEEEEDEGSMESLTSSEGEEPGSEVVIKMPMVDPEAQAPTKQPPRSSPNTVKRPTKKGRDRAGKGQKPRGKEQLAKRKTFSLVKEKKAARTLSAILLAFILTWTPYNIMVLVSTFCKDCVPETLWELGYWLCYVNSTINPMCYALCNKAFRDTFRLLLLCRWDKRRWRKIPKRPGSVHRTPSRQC
HTR2B, sequence (P41595 whole entry, species assumed): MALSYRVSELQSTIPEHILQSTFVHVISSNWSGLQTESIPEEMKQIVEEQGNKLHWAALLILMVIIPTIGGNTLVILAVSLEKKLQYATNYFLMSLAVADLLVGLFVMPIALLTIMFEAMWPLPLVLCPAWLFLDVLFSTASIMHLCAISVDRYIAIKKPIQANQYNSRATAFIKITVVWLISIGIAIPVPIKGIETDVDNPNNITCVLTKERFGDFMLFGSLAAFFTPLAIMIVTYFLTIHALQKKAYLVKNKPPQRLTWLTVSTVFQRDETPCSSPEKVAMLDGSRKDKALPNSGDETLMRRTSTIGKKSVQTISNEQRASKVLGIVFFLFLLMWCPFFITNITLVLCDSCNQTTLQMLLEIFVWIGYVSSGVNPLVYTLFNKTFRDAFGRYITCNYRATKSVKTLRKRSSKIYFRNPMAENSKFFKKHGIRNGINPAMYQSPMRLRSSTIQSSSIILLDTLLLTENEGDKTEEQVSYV
ADRB2, sequence (P07550 whole entry, species assumed): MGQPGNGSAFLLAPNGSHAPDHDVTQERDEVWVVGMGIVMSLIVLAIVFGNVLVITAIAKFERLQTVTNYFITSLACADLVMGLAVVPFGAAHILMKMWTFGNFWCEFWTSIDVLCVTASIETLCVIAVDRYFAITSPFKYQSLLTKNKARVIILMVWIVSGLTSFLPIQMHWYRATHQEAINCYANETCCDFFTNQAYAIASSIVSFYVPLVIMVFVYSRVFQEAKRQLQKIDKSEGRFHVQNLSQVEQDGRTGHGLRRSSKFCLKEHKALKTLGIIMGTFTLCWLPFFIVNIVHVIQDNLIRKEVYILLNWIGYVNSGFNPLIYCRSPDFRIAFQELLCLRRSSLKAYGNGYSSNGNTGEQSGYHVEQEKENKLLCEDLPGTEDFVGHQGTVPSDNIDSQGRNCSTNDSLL
DRD2S, sequence (P14416 1-414 isoform P14416-2): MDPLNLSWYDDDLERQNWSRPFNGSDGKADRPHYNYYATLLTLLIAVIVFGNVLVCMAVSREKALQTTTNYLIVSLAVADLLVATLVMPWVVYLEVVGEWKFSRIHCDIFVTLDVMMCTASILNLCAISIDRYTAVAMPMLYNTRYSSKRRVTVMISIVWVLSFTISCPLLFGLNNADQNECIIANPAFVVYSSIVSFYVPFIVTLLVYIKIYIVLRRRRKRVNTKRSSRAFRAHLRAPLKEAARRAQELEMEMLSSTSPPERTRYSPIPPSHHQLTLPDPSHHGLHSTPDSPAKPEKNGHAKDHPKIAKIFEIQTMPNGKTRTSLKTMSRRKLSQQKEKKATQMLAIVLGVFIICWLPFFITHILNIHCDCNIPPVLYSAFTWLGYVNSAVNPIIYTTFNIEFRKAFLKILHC
ROCK1, sequence (Q13464 whole entry, species assumed): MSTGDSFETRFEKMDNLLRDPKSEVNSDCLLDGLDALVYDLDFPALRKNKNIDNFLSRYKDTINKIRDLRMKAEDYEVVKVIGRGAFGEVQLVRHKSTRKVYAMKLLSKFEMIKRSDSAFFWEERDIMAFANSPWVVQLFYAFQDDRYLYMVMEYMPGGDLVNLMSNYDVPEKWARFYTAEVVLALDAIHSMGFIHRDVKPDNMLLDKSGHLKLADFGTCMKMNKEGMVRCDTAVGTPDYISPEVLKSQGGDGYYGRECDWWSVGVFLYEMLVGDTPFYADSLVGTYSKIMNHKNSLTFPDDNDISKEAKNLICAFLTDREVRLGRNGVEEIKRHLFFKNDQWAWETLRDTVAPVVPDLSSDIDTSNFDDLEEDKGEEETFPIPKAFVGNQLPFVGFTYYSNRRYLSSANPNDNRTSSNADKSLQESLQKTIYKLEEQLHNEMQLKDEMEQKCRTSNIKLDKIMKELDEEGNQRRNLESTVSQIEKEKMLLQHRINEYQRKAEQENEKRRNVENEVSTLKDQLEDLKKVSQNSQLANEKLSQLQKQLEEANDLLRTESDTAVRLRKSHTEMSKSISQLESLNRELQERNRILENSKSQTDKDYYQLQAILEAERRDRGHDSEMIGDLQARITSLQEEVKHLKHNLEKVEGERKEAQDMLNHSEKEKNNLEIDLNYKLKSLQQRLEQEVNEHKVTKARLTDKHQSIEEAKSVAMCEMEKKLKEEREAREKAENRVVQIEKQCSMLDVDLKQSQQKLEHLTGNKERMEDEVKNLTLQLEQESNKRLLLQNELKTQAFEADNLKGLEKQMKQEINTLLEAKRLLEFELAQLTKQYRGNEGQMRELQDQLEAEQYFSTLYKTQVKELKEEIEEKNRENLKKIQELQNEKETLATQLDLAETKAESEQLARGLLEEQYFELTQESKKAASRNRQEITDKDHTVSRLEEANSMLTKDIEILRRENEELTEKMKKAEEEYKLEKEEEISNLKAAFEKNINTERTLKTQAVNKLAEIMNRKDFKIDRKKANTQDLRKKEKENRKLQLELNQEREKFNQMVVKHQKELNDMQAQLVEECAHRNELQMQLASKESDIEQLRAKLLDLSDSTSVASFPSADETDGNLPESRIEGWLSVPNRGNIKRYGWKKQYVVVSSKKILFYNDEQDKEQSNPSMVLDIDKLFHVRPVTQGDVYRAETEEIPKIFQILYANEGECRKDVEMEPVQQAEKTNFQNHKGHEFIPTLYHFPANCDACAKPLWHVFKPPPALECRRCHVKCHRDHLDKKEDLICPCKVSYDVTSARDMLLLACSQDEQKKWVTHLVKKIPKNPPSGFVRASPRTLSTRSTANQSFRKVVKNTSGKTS
MAOA, sequence (P21397 whole entry, species assumed): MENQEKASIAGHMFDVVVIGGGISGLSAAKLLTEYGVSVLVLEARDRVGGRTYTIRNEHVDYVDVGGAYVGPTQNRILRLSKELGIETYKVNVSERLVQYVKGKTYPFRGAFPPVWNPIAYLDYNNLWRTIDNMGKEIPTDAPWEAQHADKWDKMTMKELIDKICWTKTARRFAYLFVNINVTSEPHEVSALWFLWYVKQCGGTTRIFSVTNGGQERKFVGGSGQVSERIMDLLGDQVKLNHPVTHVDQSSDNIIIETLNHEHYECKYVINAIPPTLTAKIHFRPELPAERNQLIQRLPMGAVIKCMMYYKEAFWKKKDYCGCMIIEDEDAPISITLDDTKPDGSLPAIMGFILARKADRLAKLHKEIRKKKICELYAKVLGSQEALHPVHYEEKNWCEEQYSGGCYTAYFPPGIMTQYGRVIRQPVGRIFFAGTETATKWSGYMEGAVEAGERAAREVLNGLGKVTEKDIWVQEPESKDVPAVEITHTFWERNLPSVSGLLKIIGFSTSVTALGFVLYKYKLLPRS
PDE4D2, sequence (Q08499 303-809 limits assumed): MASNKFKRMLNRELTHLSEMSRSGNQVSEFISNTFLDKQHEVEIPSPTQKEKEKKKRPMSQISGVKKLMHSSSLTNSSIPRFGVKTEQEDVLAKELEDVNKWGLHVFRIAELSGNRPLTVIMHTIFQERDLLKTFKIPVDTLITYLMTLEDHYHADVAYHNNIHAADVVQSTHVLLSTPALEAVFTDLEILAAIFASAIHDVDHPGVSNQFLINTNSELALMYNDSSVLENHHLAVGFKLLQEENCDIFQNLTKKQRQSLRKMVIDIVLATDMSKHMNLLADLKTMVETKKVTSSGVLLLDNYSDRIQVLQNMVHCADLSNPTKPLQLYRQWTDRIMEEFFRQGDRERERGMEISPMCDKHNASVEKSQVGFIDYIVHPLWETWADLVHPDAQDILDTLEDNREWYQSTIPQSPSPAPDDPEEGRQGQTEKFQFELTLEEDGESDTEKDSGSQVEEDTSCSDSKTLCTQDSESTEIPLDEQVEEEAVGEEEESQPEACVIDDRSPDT

Cn1cnc2c(=O)n(-c3cccnc3C3CC3)c3cc(Cl)ccc3c21 [SCR‐7952, 7‐chloro‐5‐(2‐cyclopropylpyridin‐3‐yl)‐1‐methyl‐1,5‐dihydro‐4H‐imidazo[4,5‐c]quinolin‐4‐one]
EC50 [1]: > 10 µM
IC50 [1]: > 10 µM
EC50 [2]: > 10 µM
IC50 [2]: > 10 µM
EC50 [3]: > 10 µM
IC50 [3]: > 10 µM
effect on mice plasma levels of bilirubin [4]: no significant effect
EC50 ([5]; read-out: ADRB2 Agonism EC50): > 10 µM
IC50 ([5]; read-out: ADRB2 Antagonism IC50): > 10 µM
IC50 [6]: > 10 µM
fold more potent than AG-270 on MAT2A enzymatic activity [7]: 3.7 fold
IC50 ([7]; biochemical assay, read-out: IC50, MAT2A enzyme): 0.0187 µM
Ki ([7]; in the presence of substrate methionine, Michaelis–Menten approach): 0.0145 µM
α value ([7]; noncompetitive inhibition for methionine): 1.193
tumor SDMA levels [8]: remarkable reduction
expression of MAT2A protein [9]: upregulated
IC50 [10]: > 10 µM
IC50 [11]: > 10 µM
TGI ([12]; SCR-7952 0.5 mg/kg oral q.d.): 60.0%
TGI ([12]; SCR-7952 1 mg/kg oral q.d.): 62.7%
TGI ([12]; SCR-7952 3.0 mg/kg oral q.d.): 82.9%
inhibition of SAM levels in tumors and plasma [13]: 53.56–68.72%
IC50 [14]: > 10 µM
EC50 ([15]; read-out: CCKAR Agonism EC50): > 10 µM
IC50 ([15]; read-out: CCKAR Antagonism IC50): > 10 µM
